ChEMBL document CHEMBL5113500, “New brefeldin A-cinnamic acid ester derivatives as potential antitumor agents: Design, synthesis and biological evaluation” (Eur J Med Chem, 2022)
Converted amounts (≈) assume the structure as drawn.

Legend:
HeLa = assay: Antiproliferative activity against human HeLa cells measured after 72 hrs by MTT assay; format: functional, cell-based
HepG2 [1] = assay: Antiproliferative activity against human HepG2 cells measured after 72 hrs by MTT assay; format: functional, cell-based; settings: HepG2, 72 h
ECa-109 cell line = assay: Antiproliferative activity against human Eca-109 cells measured after 72 hrs by MTT assay; format: functional, cell-based; settings: ECa-109, 72 h
PANC-1 = assay: Antiproliferative activity against human PANC-1 cells measured after 72 hrs by MTT assay; format: functional, cell-based; settings: PANC-1, 72 h
Bel-7402 = assay: Antiproliferative activity against human Bel-7402 cells measured after 72 hrs by MTT assay; format: functional, cell-based; settings: Bel-7402, 72 h
HepG2 [2] = assay: Antiproliferative activity against human HepG2 cells assessed as cell growth inhibition at 1 uM measured after 72 hrs by MTT assay relative to control; format: functional; settings: read-out: GI
[3] = Cytotoxicity against human L02 cells measured after 72 hrs by MTT assay; format: toxicity, cell-based
[4] = Selectivity index, ratio of IC50 for human L02 cells to IC50 for human HepG2 cells; format: toxicity; settings: L02 cells and HepG2 cells, read-out: Ratio IC50
[5] = Solubility of the compound in 5% DMSO and 10% Solutol HS-15 saline solution; format: physicochemical

Row | IC50 (HeLa) [nM] | IC50 (HepG2 [1]) [nM] | IC50 (PANC-1) [nM] | IC50 (Bel-7402) [nM] | Structure (SMILES) | IC50 (ECa-109 cell line) [nM] | inhibition of growth at 1 µM (HepG2 [2]) [%] | IC50 at 72 h [3] [nM] | selectivity ratio [4] | solubility [5] [µg/mL]
1 | 1650 | 1350 | 870 | 1070 | C[C@H]1CCC/C=C/[C@@H]2C[C@H](O)C[C@H]2[C@H](OC(=O)/C=C/c2ccc3c(c2)OCO3)/C=C/C(=O)O1 | 2200 | 54.5 | – | – | –
2 | 740 | 520 | 510 | 640 | C[C@H]1CCC/C=C/[C@@H]2C[C@H](O)C[C@H]2[C@H](OC(=O)/C=C/c2ccccc2Br)/C=C/C(=O)O1 | 1140 | 72.5 | – | – | –
3 | – | – | – | – | C[C@H]1CCC/C=C/[C@@H]2C[C@H](OC(=O)/C=C/c3ccc(C(F)(F)F)cc3)C[C@H]2[C@H](OC(=O)/C=C/c2ccc(C(F)(F)F)cc2)/C=C/C(=O)O1 | – | 4.3 | – | – | –
4 | 340 | 510 | 580 | 610 | C[C@H]1CCC/C=C/[C@@H]2C[C@H](O)C[C@H]2[C@H](OC(=O)/C=C/c2ccc(C(F)(F)F)cc2)/C=C/C(=O)O1 | 600 | 74.9 | – | – | –
5 | – | – | – | – | C[C@H]1CCC/C=C/[C@@H]2C[C@H](OC(=O)/C=C/c3cccc(F)c3)C[C@H]2[C@H](OC(=O)/C=C/c2cccc(F)c2)/C=C/C(=O)O1 | – | 6.3 | – | – | –
6 | 750 | 1860 | 630 | 1770 | Cc1ccccc1/C=C/C(=O)O[C@@H]1/C=C/C(=O)O[C@@H](C)CCC/C=C/[C@@H]2C[C@H](O)C[C@H]21 | 2680 | 37.1 | – | – | –
7 | – | – | – | – | C[C@H]1CCC/C=C/[C@@H]2C[C@H](OC(=O)/C=C/c3ccccc3)C[C@H]2[C@H](OC(=O)/C=C/c2ccccc2)/C=C/C(=O)O1 | – | 20.4 | – | – | –
8 | 1120 | 1890 | 360 | 3290 | Cc1cccc(/C=C/C(=O)O[C@@H]2C[C@H]3[C@H](O)/C=C/C(=O)O[C@@H](C)CCC/C=C/[C@@H]3C2)c1 | 2100 | 34.7 | – | – | –
9 | 870 | 560 | 370 | 750 | Cc1cccc(/C=C/C(=O)O[C@@H]2/C=C/C(=O)O[C@@H](C)CCC/C=C/[C@@H]3C[C@H](O)C[C@H]32)c1 | 1090 | 77.8 | – | – | –
10 | 1310 | 1500 | 350 | 970 | Cc1ccc(/C=C/C(=O)O[C@@H]2/C=C/C(=O)O[C@@H](C)CCC/C=C/[C@@H]3C[C@H](O)C[C@H]32)cc1 | 3590 | 64 | – | – | –
11 | – | – | – | – | C[C@H]1CCC/C=C/[C@@H]2C[C@H](OC(=O)/C=C/c3ccccc3Br)C[C@H]2[C@H](OC(=O)/C=C/c2ccccc2Br)/C=C/C(=O)O1 | – | 3.1 | – | – | –
12 | 3960 | 980 | 670 | 1040 | C[C@H]1CCC/C=C/[C@@H]2C[C@H](OC(=O)/C=C/c3ccc(F)cc3)C[C@H]2[C@H](O)/C=C/C(=O)O1 | 2860 | 69.7 | – | – | –
13 | – | – | – | – | COc1cc(/C=C/C(=O)O[C@@H]2C[C@@H]3[C@H](/C=C/CCC[C@H](C)OC(=O)/C=C/[C@H]3OC(=O)/C=C/c3ccc(OCc4ccccc4)c(OC)c3)C2)ccc1OCc1ccccc1 | – | 2.7 | – | – | –
14 | – | – | – | – | Cc1ccc(/C=C/C(=O)O[C@@H]2C[C@@H]3[C@H](/C=C/CCC[C@H](C)OC(=O)/C=C/[C@H]3OC(=O)/C=C/c3ccc(C)cc3)C2)cc1 | – | 5.2 | – | – | –
15 | – | – | – | – | Cc1cccc(/C=C/C(=O)O[C@@H]2C[C@@H]3[C@H](/C=C/CCC[C@H](C)OC(=O)/C=C/[C@H]3OC(=O)/C=C/c3cccc(C)c3)C2)c1 | – | 6 | – | – | –
16 | 1100 | 890 | 660 | 720 | C[C@H]1CCC/C=C/[C@@H]2C[C@H](OC(=O)/C=C/c3cccc(Cl)c3)C[C@H]2[C@H](O)/C=C/C(=O)O1 | 1450 | 68.1 | – | – | –
17 | – | – | – | – | C[C@H]1CCC/C=C/[C@@H]2C[C@H](OC(=O)/C=C/c3ccccc3F)C[C@H]2[C@H](OC(=O)/C=C/c2ccccc2F)/C=C/C(=O)O1 | – | 8.4 | – | – | –
18 | – | – | – | – | C[C@H]1CCC/C=C/[C@@H]2C[C@H](OC(=O)/C=C/c3ccc(F)cc3)C[C@H]2[C@H](OC(=O)/C=C/c2ccc(F)cc2)/C=C/C(=O)O1 | – | 8.1 | – | – | –
19 | 1050 | 1020 | 1000 | 1060 | C[C@H]1CCC/C=C/[C@@H]2C[C@H](O)C[C@H]2[C@H](OC(=O)/C=C/c2ccccc2F)/C=C/C(=O)O1 | 1660 | 58.3 | – | – | –
20 | 460 | 420 | 460 | 450 | C[C@H]1CCC/C=C/[C@@H]2C[C@H](OC(=O)/C=C/c3ccc(C(F)(F)F)cc3)C[C@H]2[C@H](O)/C=C/C(=O)O1 | 550 | 86.7 | – | – | –
21 | 800 | 730 | 470 | 640 | C[C@H]1CCC/C=C/[C@@H]2C[C@H](O)C[C@H]2[C@H](OC(=O)/C=C/c2cccc(Cl)c2)/C=C/C(=O)O1 | 740 | 77.4 | – | – | –
22 | – | – | – | – | C[C@H]1CCC/C=C/[C@@H]2C[C@H](OC(=O)/C=C/c3ccc4c(c3)OCO4)C[C@H]2[C@H](O)/C=C/C(=O)O1 | – | 3.7 | – | – | –
23 | – | – | – | – | C[C@H]1CCC/C=C/[C@@H]2C[C@H](OC(=O)/C=C/c3ccc4c(c3)OCO4)C[C@H]2[C@H](OC(=O)/C=C/c2ccc3c(c2)OCO3)/C=C/C(=O)O1 | – | 4.3 | – | – | –
24 | 750 | 1020 | 570 | 790 | C[C@H]1CCC/C=C/[C@@H]2C[C@H](O)C[C@H]2[C@H](OC(=O)/C=C/c2ccc(F)cc2)/C=C/C(=O)O1 | 1140 | 62 | – | – | –
25 | 570 | 410 | 280 | 890 | C[C@H]1CCC/C=C/[C@@H]2C[C@H](OC(=O)/C=C/c3ccccc3Br)C[C@H]2[C@H](O)/C=C/C(=O)O1 | 500 | 70.5 | – | – | –
26 | – | – | – | – | C[C@H]1CCC/C=C/[C@@H]2C[C@H](OC(=O)/C=C/c3ccc(N(C)C)cc3)C[C@H]2[C@H](O)/C=C/C(=O)O1 | – | 47 | – | – | –
27 | – | – | – | – | Cc1ccccc1/C=C/C(=O)O[C@@H]1C[C@@H]2[C@H](/C=C/CCC[C@H](C)OC(=O)/C=C/[C@H]2OC(=O)/C=C/c2ccccc2C)C1 | – | 1.7 | – | – | –
28 | 2790 | 480 | 860 | 820 | C[C@H]1CCC/C=C/[C@@H]2C[C@H](OC(=O)/C=C/c3ccccc3F)C[C@H]2[C@H](O)/C=C/C(=O)O1 | 2420 | 71.1 | – | – | –
29 | – | – | – | – | C[C@H]1CCC/C=C/[C@@H]2C[C@H](OC(=O)/C=C/c3cccc(Cl)c3)C[C@H]2[C@H](OC(=O)/C=C/c2cccc(Cl)c2)/C=C/C(=O)O1 | – | 6.4 | – | – | –
30 | – | – | – | – | COc1cc(/C=C/C(=O)O[C@@H]2C[C@H]3[C@H](O)/C=C/C(=O)O[C@@H](C)CCC/C=C/[C@@H]3C2)cc(OC)c1OC | – | 4.2 | – | – | –

Row | Structure (SMILES) | IC50 (HeLa) [nM] | IC50 (HepG2 [1]) [nM] | IC50 (PANC-1) [nM] | IC50 (Bel-7402) [nM] | IC50 (ECa-109 cell line) [nM] | inhibition of growth at 1 µM (HepG2 [2]) [%] | IC50 at 72 h [3] [nM] | selectivity ratio [4] | solubility [5] [µg/mL]
31 | C[C@H]1CCC/C=C/[C@@H]2C[C@H](O)C[C@H]2[C@H](OC(=O)/C=C/c2cccc(F)c2)/C=C/C(=O)O1 | 700 | 490 | 360 | 810 | 950 | 68.3 | – | – | –
32 | C[C@H]1CCC/C=C/[C@@H]2C[C@H](OC(=O)/C=C/c3cccc(F)c3)C[C@H]2[C@H](O)/C=C/C(=O)O1 | 2740 | 450 | 610 | 920 | 2140 | 71.1 | – | – | –
33 | C[C@H]1CCC/C=C/[C@@H]2C[C@H](OC(=O)/C=C/c3ccccc3)C[C@H]2[C@H](O)/C=C/C(=O)O1 | 530 | 1250 | 570 | 1110 | 1210 | 62.9 | – | – | –
34 | COc1cc(/C=C/C(=O)O[C@@H]2/C=C/C(=O)O[C@@H](C)CCC/C=C/[C@@H]3C[C@H](O)C[C@H]32)cc(OC)c1OC | 1580 | 720 | 820 | 1370 | 2100 | 65.1 | – | – | –
35 | C[C@H]1CCC/C=C/[C@@H]2C[C@H](O)C[C@H]2[C@H](O)/C=C/C(=O)O1 [BREFELDIN A] | 70 | 180 | 80 | 170 | 140 | 94.4 | 100 | 0.56 | 1000 (≈ 3.57 mM)
36 | C[C@H]1CCC/C=C/[C@@H]2C[C@H](O)C[C@H]2[C@H](OC(=O)/C=C/c2ccccc2)/C=C/C(=O)O1 | 1170 | 570 | 420 | 970 | 1120 | 64.7 | – | – | –
37 | Cc1ccccc1/C=C/C(=O)O[C@@H]1C[C@H]2[C@H](O)/C=C/C(=O)O[C@@H](C)CCC/C=C/[C@@H]2C1 | > 4000 | 2980 | 2790 | 2320 | > 4000 | 28.9 | – | – | –
38 | Cc1ccc(/C=C/C(=O)O[C@@H]2C[C@H]3[C@H](O)/C=C/C(=O)O[C@@H](C)CCC/C=C/[C@@H]3C2)cc1 | 1910 | 2870 | 1350 | 2140 | 12500 | 30.8 | – | – | –
